# According to patent US12564638B2 (SHANGHAITECH UNIVERSITY, priority 2019, dated 2026):
# System: HCC827 cells (EGFR Exon19 del, non-small cell lung cancer cells)
# Test: Cell viability assay (WST/CCK8), HCC827 cells
# Assay type: cell-based
# Settings: Homo sapiens, HCC827, 72 h, Table 3, poziotinib-based compounds; HCC827 (Exon19 Del); 72 hours; WST (CCK8); read-out: IC50 (half inhibitory concentration)
# From the text: The cell lines with abnormal EGFR expression used are as follows: • HCC827 cells (EGFR Exon19 del, non-small cell lung cancer cells); • PC9 cells (EGFR Exon 19 del, non-small cell lung cancer cells); • PC9BracA1 (EGFR Exon 19 del+T790M, non-small cell lung cancer cells) • H1975 (EGFR Exon T790M+L858R mutation, non-small cell lung cancer cell line) • BT474 cells (HER2 positive breast cancer cells)
# All of the half inhibitory concentrations (IC50) of these compounds of the present invention were determined with WST reagent from Fuyuan Biotec Company. The specific experiment procedures are as follows: Cancer cells were planted in 96-well-plate at the density of 3 000 cells per well with 100 μL RPMI1640 completed culture medium. In the next day, compounds with indicated concentrations were added to the cells, DMSO was used as the negative control and the EGFR TKIs were used to treat cells as the positive groups. After 72 hours drug treatment, cell viability was measured by using the WST reagent following the instructions.
# The cells were treated with the gradient concentration of these compounds (the maximum concentration: 10 μM; 3-fold dilution ratio, 10 concentration gradients) for 72 hours and then incubated with the WST (CCK8) reagent to determine the cell viability.
row,Compound,IC50 [nM]
1,"COc1cc2ncnc(Nc3ccc(Cl)c(Cl)c3F)c2cc1OC1CCN(C(=O)COCCOCC(=O)N[C@H](C(=O)N2C[C@H](O)C[C@H]2C(=O)NCc2ccc(-c3scnc3C)cc2)C(C)(C)C)CC1 [SIAIS249024, (2S,4R)-1-((S)-2-(2-(2-(2-(4-((4-((3,4-dichloro-2-fluorophenyl)amino)-7-methoxyquinazolin-6-yl)oxy)piperidin-1-yl)-2-oxoethoxy)ethoxy)acetamido)-3,3-dimethylbutanoyl)-4-hydroxy-N-(4-(4-methylthiazol-5-yl)benzyl)pyrrolidine-2-carboxamide]",174
2,"COc1cc2ncnc(Nc3ccc(Cl)c(Cl)c3F)c2cc1OC1CCN(C(=O)CCCCCCC(=O)N[C@H](C(=O)N2C[C@H](O)C[C@H]2C(=O)NCc2ccc(-c3scnc3C)cc2)C(C)(C)C)CC1 [SIAIS249022, (2S,4R)-1-((S)-2-(8-(4-((4-((3,4-dichloro-2-fluorophenyl)amino)-7-methoxyquinazolin-6-yl)oxy)piperidin-1-yl)-8-oxooctanamido)-3,3-dimethylbutanoyl)-4-hydroxy-N-(4-(4-methylthiazol-5-yl)benzyl)pyrrolidine-2-carboxamide]",40
3,"COc1cc2ncnc(Nc3ccc(Cl)c(Cl)c3F)c2cc1OC1CCN(C(=O)CCCCCSc2cccc3c2C(=O)N(C2CCC(=O)NC2=O)C3=O)CC1 (stereo not shown) [SIAIS249018, 4-((6-(4-((4-((3,4-dichloro-2-fluorophenyl)amino)-7-methoxyquinazolin-6-yl)oxy)piperidin-1-yl)-6-oxohexyl)thio)-2-(2,6-dioxopiperidin-3-yl)isoindoline-1,3-dione]",13.3
4,"COc1cc2ncnc(Nc3ccc(Cl)c(Cl)c3F)c2cc1OC1CCN(C(=O)CCOCCOCCOCCOCCOCCNc2cccc3c2C(=O)N(C2CCC(=O)NC2=O)C3=O)CC1 (stereo not shown) [SIAIS249033, 4-((18-(4-((4-((3,4-dichloro-2-fluorophenyl)amino)-7-methoxyquinazolin-6-yl)oxy)piperidin-1-yl)-18-oxo-3,6,9,12,15-pentaoxaoctadecyl)amino)-2-(2,6-dioxopiperidin-3-yl)isoindoline-1,3-dione]",13

# Same assay, conditions: Homo sapiens, HCC827, 72 h, Table 4, gefitinib and sapitinib-based compounds; HCC827 (Exon19 Del); 72 hours; WST; read-out: IC50 (half inhibitory concentration)
row,Compound,IC50 [nM]
1,"COc1cc2ncnc(Nc3ccc(F)c(Cl)c3)c2cc1OCCCN1CCC(N2CCNCC2)CC1 [SIAIS262080, N-(3-chloro-4-fluorophenyl)-7-methoxy-6-(3-(4-(piperazin-1-yl)piperidin-1-yl)propoxy)quinazolin-4-amine]",41
2,"COc1cc2ncnc(Nc3ccc(F)c(Cl)c3)c2cc1OCCCN1CCC(N2CCN(CCCCC#Cc3cccc4c3CN(C3CCC(=O)NC3=O)C4=O)CC2)CC1 (stereo not shown) [SIAIS262090, 3-(4-(6-(4-(1-(3-((4-((3-chloro-4-fluorophenyl)amino)-7-methoxyquinazolin-6-yl)oxy)propyl)piperidin-4-yl)piperazin-1-yl)hex-1-yn-1-yl)-1-oxoisoindolin-2-yl)piperidine-2,6-dione]",47
3,"COc1cc2ncnc(Nc3cccc(Cl)c3F)c2cc1OC1CCN(CC(=O)NCCCCCCSc2cccc3c2CN(C2CCC(=O)NC2=O)C3=O)CC1 (stereo not shown) [SIAIS293068, 2-(4-((4-((3-chloro-2-fluorophenyl)amino)-7-methoxyquinazolin-6-yl)oxy)piperidin-1-yl)-N-(6-((2-(2,6-dioxopiperidin-3-yl)-1-oxoisoindolin-4-yl)thio)hexyl)acetamide]",1.2
4,"COc1cc2ncnc(Nc3ccc(F)c(Cl)c3)c2cc1OCCCN1CCC(N2CCN(C(=O)CCCCSc3cccc4c3CN(C3CCC(=O)NC3=O)C4=O)CC2)CC1 (stereo not shown) [SIAIS262086, 3-(4-((5-(4-(1-(3-((4-((3-chloro-4-fluorophenyl)amino)-7-methoxyquinazolin-6-yl)oxy)propyl)piperidin-4-yl)piperazin-1-yl)-5-oxopentyl)thio)-1-oxoisoindolin-2-yl)piperidine-2,6-dione]",59
5,"COc1cc2ncnc(Nc3ccc(F)c(Cl)c3)c2cc1OCCCN1CCC(N2CCN(CCCC#Cc3cccc4c3CN(C3CCC(=O)NC3=O)C4=O)CC2)CC1 (stereo not shown) [SIAIS262089, 3-(4-(5-(4-(1-(3-((4-((3-chloro-4-fluorophenyl)amino)-7-methoxyquinazolin-6-yl)oxy)propyl)piperidin-4-yl)piperazin-1-yl)pent-1-yn-1-yl)-1-oxoisoindolin-2-yl)piperidine-2,6-dione]",102
6,"COc1cc2ncnc(Nc3ccc(F)c(Cl)c3)c2cc1OC1CCN(CC(=O)NCCCCCCCCSc2cccc3c2CN(C2CCC(=O)NC2=O)C3=O)CC1 (stereo not shown) [SIAIS293052, 2-(4-((4-((3-chloro-4-fluorophenyl)amino)-7-methoxyquinazolin-6-yl)oxy)piperidin-1-yl)-N-(8-((2-(2,6-dioxopiperidin-3-yl)-1-oxoisoindolin-4-yl)thio)octyl)acetamide]",0.25
7,"COc1cc2ncnc(Nc3ccc(F)c(Cl)c3)c2cc1OCCCN1CCC(N2CCN(C(=O)CSc3cccc4c3CN(C3CCC(=O)NC3=O)C4=O)CC2)CC1 (stereo not shown) [SIAIS262085, 3-(4-((2-(4-(1-(3-((4-((3-chloro-4-fluorophenyl)amino)-7-methoxyquinazolin-6-yl)oxy)propyl)piperidin-4-yl)piperazin-1-yl)-2-oxoethyl)thio)-1-oxoisoindolin-2-yl)piperidine-2,6-dione]",145

# Same assay, conditions: Homo sapiens, HCC827, 72 h, Table 5, afatinib-based compounds; HCC827 (Exon19 Del); 72 hours; WST; read-out: IC50 (half inhibitory concentration)
row,Compound,IC50 [nM]
1,"O=C1CCC(N2C(=O)c3cccc(SCCCCCC(=O)Nc4cc5c(Nc6ccc(F)c(Cl)c6)ncnc5cc4O[C@H]4CCOC4)c3C2=O)C(=O)N1 (stereo partly drawn) [SIAIS184095, N-(4-((3-chloro-4-fluorophenyl)amino)-7-(((S)-tetrahydrofuran-3-yl)oxy)quinazolin-6-yl)-6-((2-(2,6-dioxopiperidin-3-yl)-1,3-dioxoisoindolin-4-yl)thio)hexanamide]",174
2,"O=C1CCC(N2C(=O)c3cccc(SCCOCCOCC(=O)Nc4cc5c(Nc6ccc(F)c(Cl)c6)ncnc5cc4O[C@H]4CCOC4)c3C2=O)C(=O)N1 (stereo partly drawn) [SIAIS184153, N-(4-((3-chloro-4-fluorophenyl)amino)-7-(((S)-tetrahydrofuran-3-yl)oxy)quinazolin-6-yl)-2-(2-(2-((2-(2,6-dioxopiperidin-3-yl)-1,3-dioxoisoindolin-4-yl)thio)ethoxy)ethoxy)acetamide]",316
3,"O=C1CCC(N2C(=O)c3cccc(SCCCC(=O)Nc4cc5c(Nc6ccc(F)c(Cl)c6)ncnc5cc4O[C@H]4CCOC4)c3C2=O)C(=O)N1 (stereo partly drawn) [SIAIS184094, N-(4-((3-chloro-4-fluorophenyl)amino)-7-(((S)-tetrahydrofuran-3-yl)oxy)quinazolin-6-yl)-4-((2-(2,6-dioxopiperidin-3-yl)-1,3-dioxoisoindolin-4-yl)thio)butanamide]",105
4,"O=C1CCC(N2C(=O)c3cccc(SCC(=O)Nc4cc5c(Nc6ccc(F)c(Cl)c6)ncnc5cc4O[C@H]4CCOC4)c3C2=O)C(=O)N1 (stereo partly drawn) [SIAIS184093, N-(4-((3-chloro-4-fluorophenyl)amino)-7-(((S)-tetrahydrofuran-3-yl)oxy)quinazolin-6-yl)-2-((2-(2,6-dioxopiperidin-3-yl)-1,3-dioxoisoindolin-4-yl)thio)acetamide]",86.2

# Same assay, conditions: Homo sapiens, HCC827, 72 h, Table 6, canertinib-based compounds; HCC827 (Exon19 Del); 72 hours; WST; read-out: IC50 (half inhibitory concentration)
row,Compound,IC50 [nM]
1,"C=CC(=O)Nc1cc2c(Nc3ccc(F)c(Cl)c3)ncnc2cc1OCCCN1CCNCC1 [Caneritinib derivative A (SIAIS293064), N-(4-((3-chloro-4-fluorophenyl)amino)-7-(3-(piperazin-1-yl)propoxy)quinazolin-6-yl)acrylamide]",4.5
